# Values of other authors in patent publication US12611419B2, “Liposomal composition for use in a method of treating Parkinson's disease” (INNOMEDICA HOLDING AG, priority 2017, dated 2026).
# What was measured:
# [1] = test system: rodent model of Parkinson's disease; conditions: in vivo
# [2] = test system: B4galnt1 transgenic mice; conditions: mice deficient in GM1 family gangliosides
# [3] = test system: spinal cord injuries; conditions: patients
# [4] = test system: PD patients
Compound,Parkinson's symptoms [1],pathological CNS manifestations [2],outcome in spinal cord injuries [3],"safety, open pilot study ([4]; 10 PD patients, 1000 mg i.v. then 200 mg/day subcutaneous, 18 weeks)","anti-GM1 antibody titres, open pilot study ([4]; 10 PD patients, 18 weeks)","PET (11)C-methylphenidate binding ([4]; GM1-treated groups, baseline, week 24, 1-2 years later)",safety of long-term administration ([4]; delayed start study),"UPDRS motor scores, early-start group ([4]; delayed start study, week 24)","UPDRS motor scores, five-year open extension ([4]; end of 5 years of GM1 use, off period)","UPDRS motor scores vs placebo ([4]; randomized placebo-controlled study, 45 individuals, 16 weeks)",adverse events at the injection site ([4]; subcutaneous administration)
CCCCCCCCCCCCC/C=C/C(O)C(COC1OC(CO)C(OC2OC(CO)C(OC3OC(CO)C(O)C(OC4OC(CO)C(O)C(O)C4O)C3NC(C)=O)C(OC3(C(=O)O)CC(O)C(NC(C)=O)C(C(O)C(O)CO)O3)C2O)C(O)C1O)NC(=O)C(Cl)Cl (centres unmarked) [LIGA20],reduce Parkinson's symptoms,,,,,,,,,,
monosialotetrahexosylganglioside [GM1],,ameliorated these pathological CNS manifestations,positive outcomes in patients,safe and well tolerated,none of the patients developed elevated anti-GM1 antibody titres,significant slowing of binding loss in several striatal regions,safe and well tolerated,significant improvement in UPDRS motor scores,lower UPDRS motor scores,significant differences between groups,"pain, irritation of the skin site and severe haematoma at the injection site occur"
